These results are taken from US20050124562A1, “Bis-quinazoline compounds for the treatment of bacterial infections” (priority 2003, published 2005).

Format in all cases: cell-based
The subject of test [1] is efflux mutants of P. aeruginosa. Kind of test: Broth microdilution MIC (NCCLS), P. aeruginosa efflux mutants. Conditions: for MICs: efflux mutants of P. aeruginosa; for MIC: Pseudomonas aeruginosa, read-out: MICs. The method, then: (§1) Representative bis-quinazolines were tested for antibacterial activity using the […] microdilution method to determine their minimum inhibitory concentrations (MICs). All compounds were tested using standard methods in accordance with NCCLS guidelines (National Committee for Clinical Laboratory Standards. 2003. Methods for dilution antimicrobial susceptibility testing for bacteria that grow aerobically. Approved Standard M-7 A-6, NCCLS, Wayne, Pa.). The bacterial strains used in the susceptibility tests were obtained from the American Type Culture Collection (ATCC) and included resistant phenotypes such as oxacillin-resistant S. aureus (ORSA) and vancomycin-resistant enterococci (VRE). The minimum bactericidal concentrations (MBCs) were determined for selected organisms. The effect of protein binding on the antibacterial activity of representative bis-quinazolines were determined by conducting MIC tests in the presence of human serum.

The subject of test [2] is H. influenzae. Kind of test: Broth microdilution MIC (NCCLS), H. influenzae. Conditions: Haemophilus influenzae; some strains of H. influenzae. The protocol:
as §1

For test [3], the system named is S. aureus, E. faecalis, S. pyogenes and S. pneumoniae. Kind of test: Broth microdilution MIC (NCCLS), gram-positive strains. In short, it runs like this: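 MICs by broth microdilution per NCCLS M-7 A-6 against ATCC strains, including ORSA and VRE; MBCs determined for selected organisms. Serum effect assessed by repeating MIC tests with human serum present.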
Test [4] concerns efflux mutants of E. coli. Kind of test: Broth microdilution MIC (NCCLS), E. coli efflux mutants. As to conditions: Escherichia coli, read-out: MICs. The protocol:
as §1

In test [5] the test system is M. catarrhalis. Kind of test: Broth microdilution MIC (NCCLS), M. catarrhalis. Conditions: Moraxella catarrhalis, read-out: MIC range. The method, then:
as §1

Where [6] appears, read: range against some strains of S. aureus, E. faecalis, S. pyogenes and S. pneumoniae, read-out: MIC.

Values after ≈ are worked out from the molar mass of the structure shown. Structures can show the parent of a compound that is named as a salt. Where two headings read alike, the source gives them in different places.

The compound “2-[4-Hydroxy-6-(2-morpholin-4-yl-ethoxy)-quinazolin-2-ylamino]-6,7-dimethoxy-quinazolin-4-ol trifluoroacetate salt [Example 150]” gave an MICs in test [1] of 64 µg/mL.
As for `Cc1nc(Nc2nc(C)c3ccc4c(c3n2)OCCO4)nc2ccc(OCCN3CCC(O)C3)cc12` (centres unmarked) [Example 12, 1-{2-[4-Methyl-2-(8-methyl-2,3-dihydro-1,4-dioxa-5,7-diaza-phenanthren-6-ylamino)-quinazolin-6-yloxy]-ethyl}-pyrrolidin-3-ol], the MIC in test [2] was 16 to 32 µg/mL (≈ 32.8 to 65.5 µM); in test [3] it was 0.06 to 16 µg/mL (≈ 0.123 to 32.8 µM); in test [4] it was 16 to 64 µg/mL (≈ 32.8 to 131 µM); in test [5], 2 to 64 µg/mL (≈ 4.09 to 131 µM); in test [1] it was 64 µg/mL (≈ 131 µM).
Turning to `COc1ccc2nc(Nc3nc(O)c4cc(OC)c(OC)c(OC)c4n3)nc(C)c2c1.O=C(O)C(F)(F)F` [Example 18, 6,7,8-Trimethoxy-2-(6-methoxy-4-methyl-quinazolin-2-ylamino)-quinazolin-4-ol trifluoroacetate salt], the MIC is 16 to 32 µg/mL in test [2]; 0.06 to 16 µg/mL in test [3] (setting [6]); 16 to 64 µg/mL in test [4]; 2 to 64 µg/mL in test [5] (some strains of M. catarrhalis); 64 µg/mL in test [1].
Take `COc1ccc2nc(Nc3nc(O)c4cc(C)cc(C)c4n3)nc(C)c2c1` [Example 19, 2-(6-Methoxy-4-methyl-quinazolin-2-ylamino)-6,8-dimethyl-quinazolin-4-ol]: the MIC in test [2] was 16 to 32 µg/mL (≈ 44.3 to 88.5 µM); in test [3], 0.06 to 16 µg/mL (≈ 0.166 to 44.3 µM); in test [4] it was 16 to 64 µg/mL (≈ 44.3 to 177 µM); in test [5], 2 to 64 µg/mL (≈ 5.53 to 177 µM); in test [1], 64 µg/mL (≈ 177 µM).
As to `COc1ccc2nc(Nc3nc(O)c4cc(C)cc(Br)c4n3)nc(C)c2c1` [Example 39, 8-Bromo-2-(6-methoxy-4-methyl-quinazolin-2-ylamino)-6-methyl-quinazolin-4-ol trifluoroacetate salt], the MIC in test [2] was 16 to 32 µg/mL; in test [3] it was 0.06 to 16 µg/mL; in test [4] it was 16 to 64 µg/mL; in test [5], 2 to 64 µg/mL; in test [1], 64 µg/mL.
Take `COc1cc2nc(Nc3nc(O)c4cc([N+](=O)[O-])cc(C)c4n3)nc(C)c2cc1OC.O=C(O)C(F)(F)F` [Example 66]: in test [1], the MICs amounted to 64 µg/mL.
In the case of `COc1cc2c(C)nc(Nc3nc(O)c4cccc(OC)c4n3)nc2cc1[N+](=O)[O-].O=C(O)C(F)(F)F` [Example 77, 2-(6-methoxy-7-nitro-4-methyl-quinazolin-2-ylamino)-8-methoxy-quinazolin-4-ol trifluoroacetate salt], the MIC in test [2] was 16 to 32 µg/mL; in test [3] (setting [6]), 0.06 to 16 µg/mL; in test [4], 16 to 64 µg/mL; in test [5] (some strains of M. catarrhalis), 2 to 64 µg/mL; in test [1], 64 µg/mL.
As to `COc1cc2nc(Nc3nc(O)c4c(OC)cccc4n3)nc(C)c2cc1OC.O=C(O)C(F)(F)F` [Example 84, 2-(6,7-Dimethoxy-4-methyl-quinazolin-2-ylamino)-5-methoxy-quinazolin-4-ol trifluoroacetate salt], the MIC in test [2] is 16 to 32 µg/mL; in test [3] (setting [6]), 0.06 to 16 µg/mL; in test [4] it was 16 to 64 µg/mL; in test [5] (some strains of M. catarrhalis) it was 2 to 64 µg/mL; in test [1] it was 64 µg/mL.
As to `COc1cc(OC)c2nc(Nc3nc(O)c4c(OC)cccc4n3)nc(C)c2c1.O=C(O)C(F)(F)F` [Example 85, 2-(6,8-Dimethoxy-4-methyl-quinazolin-2-ylamino)-5-methoxy-quinazolin-4-ol trifluoroacetate salt], the MIC in test [2] is 16 to 32 µg/mL; in test [3] (setting [6]), 0.06 to 16 µg/mL; in test [4], 16 to 64 µg/mL; in test [5] (some strains of M. catarrhalis), 2 to 64 µg/mL; in test [1], 64 µg/mL.
On the same counts, the results for `COc1cc2c(C)nc(Nc3nc(O)c4cccc(OC)c4n3)nc2cc1F.O=C(O)C(F)(F)F` [Example 86, 2-(7-Fluoro-6-methoxy-4-methyl-quinazolin-2-ylamino)-8-methoxy-quinazolin-4-ol trifluoroacetate salt] are 16 to 32 µg/mL, 0.06 to 16 µg/mL, 16 to 64 µg/mL, 2 to 64 µg/mL and 64 µg/mL.
Take `COc1cc2nc(Nc3nc(O)c4cccc(OC)c4n3)nc(CF)c2cc1OC.O=C(O)C(F)(F)F` [Example 87, 2-(4-Fluoromethyl-6,7-dimethoxy-quinazolin-2-ylamino)-8-methoxy-quinazolin-4-ol trifluoroacetate salt]: the MIC in test [2] was 16 to 32 µg/mL; in test [3] (setting [6]) it was 0.06 to 16 µg/mL; in test [4], 16 to 64 µg/mL; in test [5] (some strains of M. catarrhalis) it was 2 to 64 µg/mL; in test [1], 64 µg/mL.
As to `COc1cc2nc(Nc3nc(O)c4cc(OCCN5CCC(O)C5)ccc4n3)nc(C)c2cc1OC.O=C(O)C(F)(F)F` (centres unmarked) [Example 155, 2-(6,7-Dimethoxy-4-methyl-quinazolin-2-ylamino)-6-[2-(3-hydroxy-pyrrolidin-1-yl)-ethoxy]-quinazolin-4-ol trifluoroacetate salt], in test [1], the MICs amounted to 64 µg/mL.
`COc1cc2nc(Nc3nc(O)c4cc(OCCN5CCC(O)C5)ccc4n3)nc(C)c2cc1OC.O=C(O)C(F)(F)F` (centres unmarked) [Example 156, 2-(6,7-Dimethoxy-4-methyl-quinazolin-2-ylamino)-6-[2-(3-hydroxy-pyrrolidin-1-yl)-ethoxy]-quinazolin-4-ol trifluoroacetate salt] returned an MICs in test [1] of 64 µg/mL.
Regarding `COc1cc2nc(Nc3nc(O)c4cc(OCCNC(CO)CC(C)C)ccc4n3)nc(C)c2cc1OC` (centres unmarked) [Example 162, 2-(6,7-Dimethoxy-4-methyl-quinazolin-2-ylamino)-6-{2-[(1-hydroxymethyl-3-methylbutyl)-amino]-ethoxy}-quinazolin-4-olTrifluoroacetate salt], in test [1], the MICs was determined as 64 µg/mL.
Regarding `COc1cc2nc(Nc3nc(O)c4cc(OCCN5CCN(CCO)CC5)ccc4n3)nc(C)c2cc1OC.O=C(O)C(F)(F)F` [Example 175, 2-(6,7-Dimethoxy-4-methyl-quinazolin-2-ylamino)-6-{2-[4-(2-hydroxy-ethyl)-piperazin-1-yl]-ethoxy}-quinazolin-4-ol trifluoroacetate salt], the MIC in test [3] (setting [6]) fell in the range of 0.06 to 16 µg/mL.
Consider `COc1cc2nc(Nc3nc(O)c4cc(OCCNNCCO)ccc4n3)nc(C)c2cc1OC.O=C(O)C(F)(F)F` [Example 176, 2-(6,7-Dimethoxy-4-methyl-quinazolin-2-ylamino)-6-{2-[N′-(2-hydroxy-ethyl)-hydrazino]-ethoxy}-quinazolin-4-ol trifluoroacetate salt], for which, in test [3] (setting [6]), the MIC lay within 0.06 to 16 µg/mL.
Turning to `COc1cc2nc(Nc3nc(O)c4cc(OCCN5CC(C)OC(C)C5)ccc4n3)nc(C)c2cc1OC.O=C(O)C(F)(F)F` (centres unmarked) [Example 177, 2-(6,7-Dimethoxy-4-methyl-quinazolin-2-ylamino)-6-[2-(2,6-dimethyl-morpholin-4-yl)-ethoxy]-quinazolin-4-ol trifluoroacetate salt], in test [3] (setting [6]), the MIC is 0.06 to 16 µg/mL.
`COc1cc2nc(Nc3nc(O)c4cc(OCCNCCOCCO)ccc4n3)nc(C)c2cc1OC.O=C(O)C(F)(F)F` [Example 179, 2-(6,7-Dimethoxy-4-methyl-quinazolin-2-ylamino)-6-{2-[2-(2-hydroxy-ethoxy)-ethylamino]-ethoxy}-quinazolin-4-ol trifluoroacetate salt]: in test [3] (setting [6]), the MIC is 0.06 to 16 µg/mL.
Take `COc1cc2nc(Nc3nc(O)c4cc(OCCN5CCCC5CN5CCCC5)ccc4n3)nc(C)c2cc1OC.O=C(O)C(F)(F)F` (centres unmarked) [Example 180, 2-(6,7-Dimethoxy-4-methyl-quinazolin-2-ylamino)-6-[2-(2-pyrrolidin-1-ylmethyl-pyrrolidin-1-yl)-ethoxy]-quinazolin-4-ol trifluoroacetate salt]: in test [3] (setting [6]), the MIC lay within 0.06 to 16 µg/mL.
Still for that read-out and setting: the result for `COc1cc2nc(Nc3nc(O)c4cc(OCCNC5CCCCC5O)ccc4n3)nc(C)c2cc1OC.O=C(O)C(F)(F)F` (centres unmarked) [Example 181, 2-(6,7-Dimethoxy-4-methyl-quinazolin-2-ylamino)-6-[2-(2-hydroxy-cyclohexylamino)-ethoxy]-quinazolin-4-ol trifluoroacetate salt] reads 0.06 to 16 µg/mL; that for `COc1cc2nc(Nc3nc(O)c4cc(OCCN(C)Cc5cccnc5)ccc4n3)nc(C)c2cc1OC.O=C(O)C(F)(F)F` [Example 182, 2-(6,7-Dimethoxy-4-methyl-quinazolin-2-ylamino)-6-[2-(methyl-pyridin-3-ylmethyl-amino)-ethoxy]-quinazolin-4-ol trifluoroacetate salt], 0.06 to 16 µg/mL.
On to `COc1cc2nc(Nc3nc(O)c4cc(OCCNCCc5ccncc5)ccc4n3)nc(C)c2cc1OC.O=C(O)C(F)(F)F` [Example 183, 2-(6,7-Dimethoxy-4-methyl-quinazolin-2-ylamino)-6-[2-(2-pyridin-4-yl-ethylamino)-ethoxy]-quinazolin-4-ol TFA salt], for which the MIC in test [3] (setting [6]) lay in the range of 0.06 to 16 µg/mL.
On the same count and under the same terms, with `COc1cc2nc(Nc3nc(O)c4cc(OCCN(C)Cc5ccncc5)ccc4n3)nc(C)c2cc1OC.O=C(O)C(F)(F)F` [Example 184, 2-(6,7-Dimethoxy-4-methyl-quinazolin-2-ylamino)-6-[2-(methyl-pyridin-4-ylmethyl-amino)-ethoxy]-quinazolin-4-ol TFA salt] the figure was 0.06 to 16 µg/mL.
